Experimental data from US20150038707A1, “PROCESS FOR MAKING CGRP RECEPTOR ANTAGONISTS” (Merck Sharp & Dohme Corp., priority 2012, published 2015).

Test system: An. Vestitipennis
Assay: Repellency field studies in experimental huts, Belize (Example 12)
Format: in vivo
Details: for Reduction (%) vs control hut / Number Collected in Entrance: 2.5 nmole; for Number Collected in Entrance: treated hut
Protocol: Compound 1405 was tested in field studies in Belize at a concentration of 2.5 nmole/cm^2. The field studies involved use of huts that were equipped with entrance and exit traps. The hut design and collection procedures correspond to those disclosed by Suwonkerd et al. in “The Effect of Host Type on Movement Patters of Aedes aegypti (Diptera: Culicidae) into and out of Experimental Huts in Thailand,” J. Vector. Ecol., vol. 31 (2), p. 311-318 (2006) which is incorporated herein by reference for all relevant and consistent purposes. The huts were equipped with entrance and/or exit traps at entry and exit points (e.g., windows and doors). The huts were randomized and designated as control (no treatment) or treated (with some intervention being evaluated). The relative numbers of mosquitoes entering or leaving the treated vs. control huts was determined. An. Vestitipennis, An. Albimanus, An. Punctimacula, An. Crucians and a large number of other culicines were collected in the traps. An. Vestitipennis comprised the majority of what was collected.

Compound: CC1(C)C(C=C(Cl)C(F)(F)F)C1C(=O)OCc1ccc(F)c(C(F)(F)F)c1F (centres unmarked) [Compound 1405]
- effectiveness as a repellent in field huts (FIGS. 6-9) (2.5 nmole/cm^2, four day study): extremely effective as a repellent
- Reduction (%) vs control hut (Day 1): 97%
- Number Collected in Entrance (Day 1): 37
- Reduction (%) vs control hut (Day 2): 84%
- Number Collected in Entrance (Day 2): 99
- Reduction (%) vs control hut (Day 3): 66%
- Number Collected in Entrance (Day 3): 173
- Reduction (%) vs control hut (Day 4): 65%
- Number Collected in Entrance (Day 4): 232
- Reduction (%) vs control hut (Total of days 1-4): 82%
- Number Collected in Entrance (Total of days 1-4): 541
